Values of other authors in patent US8507466B2, “Oils enriched with diacylglycerols and phytosterol esters and unit dosage forms thereof for use in therapy” (Enzymotec Ltd., priority 2003, dated 2013).

Key:
[1] = test system: tumor cell growth (LNCaP and HT-29); conditions: compared to cholesterol
LDL = conditions: incubation of LDL with copper ion

SMILES | decrease in cell growth [1] [%] | increase in apoptosis [1] [fold] | elevation of LDL oxidation (LDL) [%]
CC[C@H](CC[C@@H](C)[C@H]1CC[C@H]2[C@@H]3CC=C4C[C@@H](O)CC[C@]4(C)[C@H]3CC[C@]12C)C(C)C [beta-sitosterol] | 24 | 4 | –
CCCCC/C=C\C/C=C\CCCCCCCC(=O)O [linoleic acid (LA), linoleic acid] | – | – | 22
